Measured values taken from patent EP0294292A2, “Derivative of benzo[b]thiophene-7-carboxylic acid, process for its preparation and pharmaceutical compositions containing it” (ADIR ET COMPAGNIE, priority 1987, dated 1988).

Tested on: récepteurs 5HT - 3
Experiment: Inhibition of the Bezold-Jarisch effect (reflex bradycardia after i.v. serotonin) in the anaesthetised rat
Assay type: in vivo
Description: Cette propriété est indicatrice d'un effet antagoniste des récepteurs 5HT - 3.
Cette étude est réalisée sur des rats Charles River d'un poids compris entre 350 et 400 g anesthésiés par une dose de 1,25 g.kg⁻¹ d'uréthanne administré intrapéritonéalement. La pression artérielle est enregistrée au niveau d'une artère carotide au moyen d'une cellule de pression Statham P 23 dB. La fréquence cardiaque est enregistrée à partir de la pression artérielle en utilisant un cardiotachymètre. Les enregistrements sont réalisés sur un enregistreur GOULD 2400. Un cathéter est placé dans la veine jugulaire et atteint l'oreillette droite de l'animal. L'effet Bezold-Jarisch est provoqué par une injection rapide de sérotonine à la dose de 40 µg/kg par voie intraveineuse dans l'oreillette droite. Le ralentissement cardiaque est associé à une chute de la pression artérielle qui provient de la stimulation des fibres afférentes vagales principalement localisées dans le ventricule droit.
Les produits à tester sont administrés par voie intraveineuse aux doses de 10 µg/kg, 100 µg/kg et 1 mg/kg. Un effet Bezold-Jarisch est provoqué 5, 15, 30, 45, 60, 90 et 120 minutes après injection des produits testés.
Le pourcentage d'inhibition de la bradycardie réflexe est évalué à partir du tracé de fréquence cardiaque. Les pourcentages d'inhibition provoqués par le produit de l'invention, ses isomères, des produits structuralement voisins, ainsi que par le produit de référence ICS 205930 sont indiqués dans le tableau I qui donne l'inhibition en % du réflexe Bezold chez le rat en fonction du temps; tous les produits ont été administrés par voie i.v à la même dose de 10 µg/kg.; les tests ont été réalisés sur 8 animaux.

| Compound | effet Bezold-Jarisch (bradycardie et hypotension après injection de sérotonine) (rat, i.v., doses between 10 µg/kg and 1 mg/kg, result in words) | activité antagoniste 5HT₃ (summary in words, refers to tableau I) | Inhibition % après 15 min. (inhibition of reflex bradycardia (Bezold reflex), rat, i.v. 10 µg/kg, 15 min after injection, serotonin 40 µg/kg i.v., 8 animals) [%] | Inhibition % après 30 min. (inhibition of reflex bradycardia (Bezold reflex), rat, i.v. 10 µg/kg, 30 min after injection, serotonin 40 µg/kg i.v., 8 animals) [%] | Inhibition % après 60 min. (inhibition of reflex bradycardia (Bezold reflex), rat, i.v. 10 µg/kg, 60 min after injection, serotonin 40 µg/kg i.v., 8 animals) [%] | Inhibition % après 120 min. (inhibition of reflex bradycardia (Bezold reflex), rat, i.v. 10 µg/kg, 120 min after injection, serotonin 40 µg/kg i.v., 8 animals) |
| --- | --- | --- | --- | --- | --- | --- |
| CN1C2CCC1CC(OC(=O)c1cccc3ccsc13)C2 (stereo not drawn) [Exemple 1, Chlorhydrate d'endo [(méthyl - 8 aza - 8 bicyclo [3.2.1]octyl - 3)oxycarbonyl] - 7 benzo [b] thiphène] | antagonise de façon intense et prolongée | actif |  |  |  |  |
| CN1[C@@H]2CC[C@H]1C[C@@H](OC(=O)c1c[nH]c3ccccc13)C2 [ICS 205-930] |  |  | 79 | 65 | 14 | inactif |
